In ChEMBL document CHEMBL4609988, “Heterocycle amide isosteres: An approach to overcoming resistance for HIV-1 integrase strand transfer inhibitors” (Bioorg Med Chem Lett, 2020):

Tests used:
[1] = system: Human immunodeficiency virus 1; test: Antiviral activity against HIV1 NL4-3 harboring […]/Q148H mutant by cellular assay; assay type: functional, organism-based; details: Human immunodeficiency virus 1, NL4-3
[2] = system: Human immunodeficiency virus 1; test: Antiviral activity against HIV1 NL4-3 harboring N155H mutant by cellular assay; assay type: functional, organism-based; details: Human immunodeficiency virus 1, NL4-3
[3] = system: Human immunodeficiency virus 1; test: Antiviral activity against HIV1 NL4-3 by cellular assay; assay type: functional, organism-based; details: Human immunodeficiency virus 1, NL4-3
[4] = system: Human immunodeficiency virus 1; test: Ratio of EC50 for antiviral activity against HIV1 NL4-3 harboring Q148R mutant to EC50 for antiviral activity against HIV1 NL4-3; assay type: functional
[5] = system: Human immunodeficiency virus 1; test: Antiviral activity against HIV1 NL4-3 harboring Q148R mutant by cellular assay; assay type: functional, organism-based; details: Human immunodeficiency virus 1, NL4-3
[6] = system: Human immunodeficiency virus 1; test: Ratio of EC50 for antiviral activity against HIV1 NL4-3 harboring G140S/Q148H mutant to EC50 for antiviral activity against HIV1 NL4-3; assay type: functional
[7] = system: Human immunodeficiency virus 1; test: Ratio of EC50 for antiviral activity against HIV1 NL4-3 harboring N155H mutant to EC50 for antiviral activity against HIV1 NL4-3; assay type: functional
[8] = AUC in rat at 1 mg/kg, iv; assay type: ADME, organism-based; details: in vivo
[9] = Volume of distribution at steady state in rat at 1 mg/kg, iv; assay type: ADME, organism-based; details: in vivo, read-out: Vdss
[10] = Clearance in rat at 1 mg/kg, iv; assay type: ADME, organism-based; details: in vivo
[11] = target: Human immunodeficiency virus type 1 integrase (Human immunodeficiency virus 1, UniProt Q7ZJM1); test: Inhibition of HIV-1 integrase strand transfer activity
Sequence of Human immunodeficiency virus type 1 integrase (Q7ZJM1 whole entry): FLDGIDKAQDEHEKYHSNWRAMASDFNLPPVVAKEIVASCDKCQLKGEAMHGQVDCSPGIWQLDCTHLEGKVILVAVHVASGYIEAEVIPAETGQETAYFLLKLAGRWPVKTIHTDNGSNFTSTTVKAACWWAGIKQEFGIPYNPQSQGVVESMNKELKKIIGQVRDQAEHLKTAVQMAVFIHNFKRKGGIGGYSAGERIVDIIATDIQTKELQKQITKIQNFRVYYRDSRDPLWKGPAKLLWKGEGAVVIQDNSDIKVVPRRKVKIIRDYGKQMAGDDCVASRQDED

Row | EC50 [11] [nM] | Structure (SMILES) | EC50 [1] [nM] | EC50 [2] [nM] | EC50 [3] [nM] | Ratio EC50 [4] | EC50 [5] [nM] | Ratio EC50 [6] | Ratio EC50 [7] | AUC [8] [µM·h] | Vd [9] [L/kg] | clearance [10] [mL/min/kg]
1 |  | CC1(C)OCCn2c1nc(C(=O)NCc1ccc(F)cc1)c(O)c2=O | > 8000 | 140 | 3 | 99 | 300 | >2666 | 47 |  |  | 
2 |  | Cn1c(Cc2ccc(F)cc2)cnc1-c1nc2n(c(=O)c1O)CCOC2(C)C | 530 | 36 | 10 |  | 61 |  |  | 3.92 | 0.5 | 11
3 | > 64000 | CC1(C)OCCn2c1nc(-c1nc(Cl)c(Cc3ccc(F)cc3)[nH]1)c(O)c2=O |  |  |  |  |  |  |  |  |  | 
4 |  | CC1(C)OCCn2c1nc(-c1ncn(Cc3ccc(F)cc3)n1)c(O)c2=O | 3700 | 16 | 7 | 34 | 220 | 563 | 2 | 0.872 | 1.5 | 52
5 |  | CC1(C)OCCn2c1nc(-c1ncc(Cc3ccc(F)cc3)s1)c(O)c2=O | 540 | 34 | 3 | 30 | 91 | 177 | 11 |  |  | 
6 |  | CC1(C)OCCn2c1nc(-c1nnc(Cc3ccc(F)cc3)[nH]1)c(O)c2=O | > 40000 | 4000 | 81 | 19 | 1500 | >500 | 49 |  |  | 
7 |  | CC1(C)OCCn2c1nc(-c1ncc(Cc3ccc(F)cc3)[nH]1)c(O)c2=O | 320 | 2 | 6 | 6 | 33 | 54 | 0.3 | 4.55 | 0.3 | 10
8 | 9300 | Cn1cc(Cc2ccc(F)cc2)nc1-c1nc2n(c(=O)c1O)CCOC2(C)C |  |  |  |  |  |  |  |  |  | 
9 |  | Cn1c(Cc2ccc(F)cc2)nnc1-c1nc2n(c(=O)c1O)CCOC2(C)C | 1100 |  | 81 |  | 450 |  |  |  |  | 
10 |  | CC1(C)OCCn2c1nc(-c1ncc(Cc3ccc(F)cc3)o1)c(O)c2=O | 6900 | 88 | 22 | 15 | 330 | 318 | 4 |  |  | 
11 |  | CC1(C)OCCn2c1nc(-c1nnc(Cc3ccc(F)cc3)o1)c(O)c2=O | > 40000 | 1300 | 390 | 0.5 | 190 | >100 | 3 |  |  | 
12 |  | CC1(C)OCCn2c1nc(-c1cc(Cc3ccc(F)cc3)[nH]n1)c(O)c2=O | 4200 | 260 | 120 | 26 | 3000 | 36 | 22 |  |  | 
13 |  | CC1(C)OCCn2c1nc(-c1cn(Cc3ccc(F)cc3)cn1)c(O)c2=O | 320 | 9 | 4 | 7 | 26 | 80 | 2 | 0.353 | 3.5 | 127
14 | > 30000 | Cc1nc(-c2nc3n(c(=O)c2O)CCOC3(C)C)nn1Cc1ccc(F)cc1 |  |  |  |  |  |  |  |  |  | 
